As usually defined, the MIC is the lowest concentration found to suppress growth. A lower MIC goes with a more susceptible organism.

In DBAASP one finds MIC data, which are given here for eight molecules.

Among the test systems are Escherichia coli BL21; Aureobasidium pullulans; Escherichia coli C600; Escherichia coli; Serratia marcescens.
What all share (test): ≥ marks a high value that may be exact or a test limit, other limits are often not marked, values filed in µg/mL are converted to µM
In assay [1] the test system is Pseudomonas aeruginosa PAO1.
For assay [2], the system named is Staphylococcus aureus USA 300.
For assay [3], the system named is Streptococcus pyogenes M1T1 5448.
The test system of assay [4] is Cryptococcus neoformans B3501.
Assay [5] concerns Escherichia coli ATCC 25922.
Assay [6] concerns Klebsiella pneumoniae ATCC 13833.
Assay [7] concerns Pseudomonas aeruginosa ATCC 27853.
Assay [8] concerns Candida albicans ATCC 90028.
Assay [9] concerns Staphylococcus aureus ATCC 25923.
Assay [10] has as its system Staphylococcus aureus ATCC 9144.
Assay [11] concerns Corynebacterium glutamicum ATCC 13032.
In assay [12] the test system is Candida albicans ATCC 10231.
The subject of assay [13] is Staphylococcus aureus 209P.
The test system of assay [14] is Bacillus subtilis KCTC 1021.
For assay [15], the system named is Klebsiella pneumoniae ATCC 10031.
Assay [16] relates to Pseudomonas aeruginosa ATCC 9027.
Assay [17] has as its system Shigella dysenteriae ATCC 9752.
Assay [18] relates to Micrococcus luteus ATCC 4698.
In assay [19] the test system is Salmonella enterica subsp. enterica serovar Typhimurium ATCC 14028.

The structures appear in SMILES notation. Values after ≈ are worked out from the molar mass of the structure shown.

As to `CC[C@H](C)[C@H](NC(=O)[C@H](CCCN=C(N)N)NC(=O)CNC(=O)[C@@H](NC(=O)[C@H](CCCCN)NC(=O)[C@H](CCCN=C(N)N)NC(=O)[C@@H](NC(=O)[C@H](Cc1ccc(O)cc1)NC(=O)[C@H](CCCN=C(N)N)NC(=O)[C@H](CCCN=C(N)N)NC(=O)[C@H](CC(C)C)NC(=O)[C@H](CCC(=O)O)NC(=O)[C@H](CCCCN)NC(=O)[C@H](C)NC(=O)[C@@H](NC(=O)[C@H](CCCN=C(N)N)NC(=O)[C@H](CC(N)=O)NC(=O)[C@@H](NC(=O)CNC(=O)[C@@H](N)Cc1c[nH]c2ccccc12)[C@@H](C)O)[C@@H](C)CC)[C@@H](C)CC)C(C)C)C(=O)N[C@@H](C)C(=O)N[C@@H](CCCN=C(N)N)C(=O)N[C@@H](CCCCN)C(=O)N[C@@H](C)C(=O)N[C@@H](Cc1c[nH]c2ccccc12)C(=O)O` [WGTNRIAKELRRYIRKVGRIARKAW], the MIC stood at 8 µM (≈ 24.8 µg/mL) in [1], 16 µM (≈ 49.6 µg/mL) in assay [2], 0.25 µM (≈ 0.775 µg/mL) in [3] and 1 µM (≈ 3.1 µg/mL) in the assay on Escherichia coli BL21.

For `CC[C@H](C)[C@H](NC(=O)[C@H](CCCN=C(N)N)NC(=O)[C@H](CC(N)=O)NC(=O)[C@H](Cc1ccccc1)NC(=O)[C@H](CC(C)C)NC(=O)CNC(=O)[C@H](CCSC)NC(=O)[C@@H](N)CC(C)C)C(=O)N[C@H](C(=O)N[C@@H](CCCN=C(N)N)C(=O)N[C@@H](CCCCN)C(=O)N[C@H](C(=O)N[C@H](C(=O)N[C@@H](CCCCN)C(=O)N[C@@H](CC(C)C)C(=O)N[C@@H](Cc1ccccc1)C(=O)N[C@@H](CC(N)=O)C(N)=O)C(C)C)C(C)C)[C@@H](C)CC` [LMGLFNRIIRKVVKLFN], the MIC worked out at 4 µM (≈ 8.24 µg/mL) in assay [4]; 8 µM (≈ 16.5 µg/mL) in assay [5]; 8 µM (≈ 16.5 µg/mL) in assay [6]; 16 µM (≈ 33 µg/mL) in assay [7]; 16 µM (≈ 33 µg/mL) in assay [8]; 8 µM (≈ 16.5 µg/mL) in [9].

Take `CC[C@H](C)[C@H](NC(=O)[C@H](CCCN=C(N)N)NC(=O)CNC(=O)[C@@H](NC(=O)[C@H](CCCCN)NC(=O)[C@H](CCCN=C(N)N)NC(=O)[C@@H](NC(=O)[C@H](Cc1ccc(O)cc1)NC(=O)[C@H](CCCN=C(N)N)NC(=O)[C@H](CCCN=C(N)N)NC(=O)[C@H](CC(C)C)NC(=O)[C@H](CCC(=O)O)NC(=O)[C@H](CCCCN)NC(=O)[C@H](C)NC(=O)[C@@H](NC(=O)[C@H](CCCN=C(N)N)NC(=O)[C@H](CC(N)=O)NC(=O)[C@@H](NC(=O)CNC(=O)[C@H](C)N)[C@@H](C)O)[C@@H](C)CC)[C@@H](C)CC)C(C)C)C(=O)N[C@@H](C)C(=O)N[C@@H](CCCN=C(N)N)C(=O)N[C@@H](CCCCN)C(=O)N[C@@H](Cc1c[nH]c2ccccc12)C(=O)N[C@@H](Cc1c[nH]c2ccccc12)C(=O)O` [AGTNRIAKELRRYIRKVGRIARKWW]: the MIC was 8 µM (≈ 24.8 µg/mL) in assay [1], 1 µM (≈ 3.1 µg/mL) in assay [3] and 0.25 µM (≈ 0.775 µg/mL) in the assay with Escherichia coli BL21.

For the molecule `CC(C)[C@H](NC(=O)[C@@H](NC(=O)[C@H](CCCN=C(N)N)NC(=O)[C@H](CCCN=C(N)N)NC(=O)[C@H](Cc1c[nH]c2ccccc12)NC(=O)[C@H](Cc1c[nH]c2ccccc12)NC(=O)CN)[C@@H](C)O)C(=O)N[C@@H](C)C(=O)N[C@@H](CCCCN)C(=O)N[C@@H](C)C(=O)N[C@@H](CCCN=C(N)N)C(=O)N[C@@H](CCCCN)C(N)=O` [GWWRRTVAKARK], the MIC was 12.5 µM (≈ 18.9 µg/mL) in [5]; ≥ 50 µM in the assay on Aureobasidium pullulans; ≥ 100 µM in assay [10]; 6.3 µM (≈ 9.54 µg/mL) in assay [7]; 1.6 µM (≈ 2.42 µg/mL) in [11]; 25 µM (≈ 37.8 µg/mL) in [12].

For `CC[C@H](C)[C@@H]1NC(=O)CNC(=O)[C@H](CCCN=C(N)N)NC(=O)[C@H](CO)NC(=O)[C@@H]2CSSC[C@H](NC1=O)C(=O)N[C@@H](Cc1ccc(O)cc1)C(=O)N[C@@H](CCCN=C(N)N)C(=O)N[C@@H](CCCN=C(N)N)C(=O)N[C@H](C(=O)N[C@@H](CCCN=C(N)N)C(=O)O)CSSC[C@H](NC(=O)[C@H](Cc1c[nH]c3ccccc13)NC(=O)[C@@H](N)CCCCN)C(=O)N[C@@H](Cc1ccccc1)C(=O)N[C@@H](CCCN=C(N)N)C(=O)N[C@@H](C(C)C)C(=O)N2` [KWCFRVCSRGICYRRCR], the minimum inhibitory concentration (MIC) is 3.13 µM (≈ 6.85 µg/mL) in assay [1], 0.8 µM (≈ 1.75 µg/mL) in the assay on Escherichia coli C600 and 3.13 µM (≈ 6.85 µg/mL) in assay [13].

On to `CC[C@H](C)[C@H](NC(=O)CN)C(=O)N[C@@H](CC(C)C)C(=O)N[C@@H](CC(=O)O)C(=O)N[C@H](C(=O)N[C@@H](CC(C)C)C(=O)N[C@@H](CCCCN)C(=O)N[C@@H](CCC(N)=O)C(=O)N[C@@H](Cc1ccccc1)C(=O)N[C@@H](C)C(=O)N[C@@H](CCCCN)C(=O)NCC(=O)N[C@H](C(=O)NCC(=O)N[C@@H](CCCCN)C(=O)N[C@@H](CC(=O)O)C(=O)N[C@@H](CC(C)C)C(=O)N[C@H](C(=O)N[C@@H](CCCCN)C(=O)NCC(=O)N[C@@H](C)C(=O)N[C@@H](C)C(=O)N[C@@H](CCC(N)=O)C(=O)O)C(C)C)C(C)C)[C@@H](C)O` [GILDTLKQFAKGVGKDLVKGAAQ], for which the MIC with Escherichia coli was > 84.8 µM; in assay [14] it was ≥ 84.8 µM; in assay [15], ≥ 84.8 µM; with Serratia marcescens, ≥ 84.8 µM; in [16], > 84.8 µM; in assay [17], ≥ 84.8 µM. In addition, the MIC was ≥ 84.8 µM in assay [18] and > 84.8 µM in assay [19].

As to `CC[C@H](C)[C@@H]1NC(=O)CNC(=O)[C@H](CCCN=C(N)N)NC(=O)[C@H](CCCN=C(N)N)NC(=O)[C@@H]2CSSC[C@H](NC1=O)C(=O)N[C@@H](Cc1ccc(O)cc1)C(=O)N[C@@H](CCCN=C(N)N)C(=O)N[C@@H](CCCN=C(N)N)C(=O)N[C@H](C(=O)N[C@@H](CCCN=C(N)N)C(=O)O)CSSC[C@H](NC(=O)[C@H](Cc1c[nH]c3ccccc13)NC(=O)[C@@H](N)CCCCN)C(=O)N[C@@H](Cc1ccccc1)C(=O)N[C@@H](CCCN=C(N)N)C(=O)N[C@@H](C(C)C)C(=O)N2` [KWCFRVCRRGICYRRCR], the minimal inhibitory concentration (MIC) in assay [1] came out at 6.25 µM (≈ 14.1 µg/mL); against Escherichia coli C600, 1.56 µM (≈ 3.52 µg/mL); in assay [13], 3.13 µM (≈ 7.07 µg/mL).

For `CC[C@H](C)[C@H](NC(=O)[C@H](Cc1cnc[nH]1)NC(=O)[C@H](C)NC(=O)[C@H](Cc1ccc(O)cc1)NC(=O)[C@@H](NC(=O)[C@H](CCCN=C(N)N)NC(=O)[C@H](Cc1ccccc1)NC(=O)[C@H](CC(C)C)NC(=O)[C@H](CCCN=C(N)N)NC(=O)[C@H](CCCCN)NC(=O)[C@H](CC(C)C)NC(=O)[C@@H](NC(=O)[C@@H](NC(=O)[C@H](CCCCN)NC(=O)[C@H](C)NC(=O)[C@@H](NC(=O)[C@H](CO)NC(=O)[C@H](CCSC)NC(=O)[C@@H](N)Cc1ccccc1)C(C)C)[C@@H](C)O)[C@@H](C)CC)C(C)C)C(=O)N[C@@H](Cc1ccc(O)cc1)C(N)=O` [FMSVAKTILKRLFRVYAHIY], the MIC in [4] was determined as 2 µM (≈ 4.91 µg/mL); in assay [5] it was 4 µM (≈ 9.82 µg/mL); in assay [6], 4 µM (≈ 9.82 µg/mL); in assay [7] it was 8 µM (≈ 19.6 µg/mL); in [8], 8 µM (≈ 19.6 µg/mL); in assay [9] it was 4 µM (≈ 9.82 µg/mL).
